Source: patent EP2914280B1, “SOMATOSTATIN-DOPAMINE CHIMERIC ANALOGS” (IPSEN PHARMA S.A.S., priority 2012, dated 2014)

Experiments:
[1] = target: T1, hDRD2 (Homo sapiens, UniProt P14416); assay: biochemical; type: binding; design: expressed in transfected cells; host or cells: CHO-K1, pcDNA3.1/GS, zeocin-selected clonal line; membranes
[2] = target: T2, hSSTR2 (Homo sapiens, UniProt P30874); assay: Intracellular calcium mobilization assay (FLIPR Calcium 4), hSSTR2; type: cell-based;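 also: agonist activity measured in cells expressing hSSTR2, seeded in 384-well plates, loaded with Calcium 4 dye, read-out as rise in intracellular calcium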
T2 construct: host or cells: 'Cells expressing hSSTR2'

[3] = target: T2, hSSTR2; assay: Somatostatin receptor radioligand binding assay (hSSTR2);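 also: radioligand displacement on membranes of CHO-K1 cells stably transfected with human SSTR2, specific binding taken as total minus binding left with 1000 nM SRIF-14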
Protocol: The affinities of a test compound for the human somatostatin receptors were determined by radioligand binding assays in CHO-K1 cells stably transfected with each of the human somatostatin receptor subtypes, hSSTR1-5. […] Clonal cell lines stably expressing each of the somatostatin receptors were obtained by transfection into CHO-K1 cells (ATCC) and subsequently selected with culture media containing 0.8 mg/mL of G418 (Life Technologies).
Membranes for in vitro receptor binding assays were obtained by the following procedures. […] The supernatant containing the plasma membranes was centrifuged at 100,000 x g for 30 minutes and the pellet was resuspended in buffer containing 20 mM glycine-glycine, 1 mM MgCl2, 250 mM sucrose, pH 7.2, for storage at -80°C.
For the SSTR1, 2 and 5 assays, membranes and various concentrations of test compounds were incubated in 96-well plates for 60 minutes at 25°C with 0.05 nM [^125I-Tyr^11]-SRIF-14 (for hSSTR1; PerkinElmer Life Science), 0.05 nM [^125I-Tyr]-seglitide (for hSSTR2; PerkinElmer Life Science) or 0.05 nM [^125I-Tyr]-[DPhe-cyclo(Cys-Tyr-DTrp-Lys-Val-Cys)-Thr-NH2] (for hSSTR5; PerkinElmer Life Science) in 50 mM HEPES, 0.2% BSA, 0.1 mM MgCl2, pH 7.5.
The incubations were terminated by rapid filtration through GF/C glass microfiber filter plates (pre-wet with 0.3% polyethyleneimine and 0.1 % BSA) using a 96-well cell harvester (Brandel). Plates were washed six times with 1 mL/well aliquots of ice-cold buffer containing 50 mM Tris buffer, pH 7.7. Specific binding was defined as the total radioligand bound minus the bound in the presence of 1000 nM SRIF-14.

[4] = target: T1, hDRD2; assay: cell-based; design: host or cells: 'Cells expressing hDRD2'; conditions: for Emax: read-out: hDRD2 %Emax ± SEM
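For Emax in this document: agonist activity at human DRD2 in DRD2-expressing cells, read as intracellular calcium mobilization with a FLIPR Calcium 4 fluorescent dye.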

T2 sequence (P30874 whole entry): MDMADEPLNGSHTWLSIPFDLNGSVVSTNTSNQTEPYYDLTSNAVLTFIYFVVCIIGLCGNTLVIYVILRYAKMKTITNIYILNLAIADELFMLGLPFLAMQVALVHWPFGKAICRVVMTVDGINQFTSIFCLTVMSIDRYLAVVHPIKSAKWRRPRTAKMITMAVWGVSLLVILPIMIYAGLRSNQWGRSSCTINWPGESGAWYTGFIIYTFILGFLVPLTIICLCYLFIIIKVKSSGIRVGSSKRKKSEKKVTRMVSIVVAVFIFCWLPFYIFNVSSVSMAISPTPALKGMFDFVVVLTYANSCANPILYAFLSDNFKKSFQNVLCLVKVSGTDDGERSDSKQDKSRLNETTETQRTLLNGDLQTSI
T1 sequence (P14416 whole entry): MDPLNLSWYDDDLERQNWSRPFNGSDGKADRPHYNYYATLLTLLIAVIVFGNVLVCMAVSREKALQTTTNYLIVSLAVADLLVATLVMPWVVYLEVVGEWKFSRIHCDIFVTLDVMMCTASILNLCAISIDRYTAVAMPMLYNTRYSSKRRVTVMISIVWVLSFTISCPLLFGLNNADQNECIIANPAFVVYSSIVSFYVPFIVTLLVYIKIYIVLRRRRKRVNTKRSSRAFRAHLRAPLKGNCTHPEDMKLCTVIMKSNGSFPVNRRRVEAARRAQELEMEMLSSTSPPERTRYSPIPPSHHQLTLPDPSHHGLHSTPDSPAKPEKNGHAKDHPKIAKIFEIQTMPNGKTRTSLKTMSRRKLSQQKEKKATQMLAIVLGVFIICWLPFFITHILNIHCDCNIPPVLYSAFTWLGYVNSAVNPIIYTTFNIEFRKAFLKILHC

| SMILES | Ki [1] | EC50 [2] | Ki [3] | EC50 [4] | Emax [4] | improvement in EC50 over Reference Compound A ([2]; p value (Student's t-test, one-tailed) < 0.05, receptor not named) |
| --- | --- | --- | --- | --- | --- | --- |
| C[C@@H](O)[C@@H]1NC(=O)[C@H](CCCCN)NC(=O)[C@@H](Cc2c[nH]c3ccccc23)NC(=O)[C@H](Cc2ccccc2)NC(=O)[C@H](Cc2ccccc2)NC(=O)[C@H](CCCNC(=N)N)NC(=O)[C@H](NCCSC[C@@H]2C[C@@H]3c4cccc5[nH]cc(c45)C[C@H]3N(C)C2)CCCCNC(=O)[C@H](Cc2c(F)c(F)c(F)c(F)c2F)NC1=O [Compound 6E, Dop1-psi(CH2NH)-cyclo(DLys-Arg-Phe-Phe-DTrp-Lys-Thr-2,3,4,5,6FPhe)] | 40.4 ± 13.2 nM | 223 ± 13.7 nM | 5.48 ± 3.38 nM | 480 ± 125 nM | 54.1 ± 20.6% |  |
| C[C@@H](O)[C@@H]1NC(=O)[C@H](CCCCN)NC(=O)[C@@H](Cc2c[nH]c3ccccc23)NC(=O)[C@H](Cc2ccncc2)NC(=O)[C@H](Cc2ccccc2)NC(=O)[C@H](CCCNC(=N)N)NC(=O)[C@H](NC[C@H](CCCCNC(=O)C[S+]([O-])C[C@@H]2C[C@@H]3c4cccc5[nH]cc(c45)C[C@H]3N(C)C2)NC(=O)C[S+]([O-])C[C@@H]2C[C@@H]3c4cccc5[nH]cc(c45)C[C@H]3N(C)C2)CCCCNC(=O)[C@H](Cc2ccc(O)cc2)NC1=O (stereo partly drawn) [Compound 16, Dop1(SO)-Lys[Dop1(SO)]-psi(CH2NH)-cyclo(DLys-Arg-Phe-4Pal-DTrp-Lys-Thr-Tyr)] | 22.5 ± 1.9 nM | 6 ± 0.8 nM | 0.04 ± 0.03 nM | 4.7 ± 0.5 nM | 95.2 ± 1.7% |  |
| C[C@@H](O)[C@@H]1NC(=O)[C@H](CCCCN)NC(=O)[C@@H](Cc2c[nH]c3ccccc23)NC(=O)[C@H](Cc2ccccc2)NC(=O)[C@H](Cc2ccccc2)NC(=O)[C@H](CCCNC(=N)N)NC(=O)[C@H](NC[C@H](Cc2ccc(O)cc2)NC(=O)CS(=O)(=O)C[C@@H]2C[C@@H]3c4cccc5[nH]cc(c45)C[C@H]3N(C)C2)CCCCNC(=O)[C@H](Cc2ccc(F)cc2)NC1=O [Compound 19, Dop1(SO2)-Tyr-psi(CH2NH)-cyclo(DLys-Arg-Phe-Phe-DTrp-Lys-Thr-4FPhe)] | > 1000 nM | 4.3 ± 1.2 nM | 0.16 ± 0.12 nM | 701 ± 220 nM | 90.7 ± 5.7% |  |
| C[C@@H](O)[C@@H]1NC(=O)[C@H](CCCCN)NC(=O)[C@@H](Cc2c[nH]c3ccccc23)NC(=O)[C@H](Cc2ccncc2)NC(=O)[C@H](Cc2ccccc2)NC(=O)[C@H](CCCNC(=N)N)NC(=O)[C@H](NC[C@H](Cc2ccc(O)cc2)NC(=O)CS(=O)(=O)C[C@@H]2C[C@@H]3c4cccc5[nH]cc(c45)C[C@H]3N(C)C2)CCCCNC(=O)[C@H](Cc2ccccc2)NC1=O [Compound 21, Dop1(SO2)-Tyr-psi(CH2NH)-cyclo(DLys-Arg-Phe-4Pal-DTrp-Lys-Thr-Phe)] | > 1000 nM | 0.9 ± 0.1 nM | 0.02 ± 0.01 nM | 208 ± 26.8 nM | 92.1 ± 0.2% |  |
| CC(=O)N(CCCNC[C@@H]1C[C@@H]2c3cccc4[nH]cc(c34)C[C@H]2N(C)C1)[C@@H]1CCCCNC(=O)[C@H](Cc2ccc(F)cc2)NC(=O)[C@H]([C@@H](C)O)NC(=O)[C@H](CCCCN)NC(=O)[C@@H](Cc2c[nH]c3ccccc23)NC(=O)[C@H](Cc2ccccc2)NC(=O)[C@H](Cc2ccccc2)NC(=O)[C@H](CCCNC(=N)N)NC1=O [Compound 22, 3-[N-(D-6-methyl-8β-ergolinylmethyl)]-aminopropionyl-psi(CH2NAc)-cyclo(DLys-Arg-Phe-Phe-DTrp-Lys-Thr-4FPhe)] | 200 ± 65 nM | 27.5 ± 6.7 nM | 0.35 ± 0.18 nM | 513 ± 129 nM | 38.7 ± 8.8% |  |
| C[C@@H](O)[C@@H]1NC(=O)[C@H](CCCCN)NC(=O)[C@@H](Cc2c[nH]c3ccccc23)NC(=O)[C@H](Cc2ccncc2)NC(=O)[C@H](Cc2ccccc2)NC(=O)[C@H](CCCNC(=N)N)NC(=O)[C@H](NCCSC[C@@H]2C[C@@H]3c4cccc5[nH]cc(c45)C[C@H]3N(C)C2)CCCCNC(=O)[C@H](Cc2ccccc2)NC1=O [Compound 23, Dop1-psi(CH2NH)-cyclo(DLys-Arg-Phe-4Pal-DTrp-Lys-Thr-Phe)] | 328 ± 19.3 nM | 2.4 ± 0.1 nM | 0.09 nM | 34.2 ± 13.7 nM | 96.4 ± 5.3% | statistically significant improvement in EC50 |
